Measured values as given in the supplement of paper PMC8671470.

Experiments:
Conditions in all cases: 72 h
HL-60 [1] = assay: cell viability (% survival relative to DMSO control); higher = less cytotoxic
Outline: (§1)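 Area under the curve, where listed, was derived from four-parameter log-logistic fits with drc and PharmacoGx. These fits used CellTiter-Glo viability from HL-60 cells in RPMI 1640 with 10% FBS, normalised to DMSO wells and wells holding 10 μM proteasome inhibitor. The full library was rescreened on 384-well plates in duplicate at five tenfold concentrations, 1–10,000 nM, with DMSO or 100 nM of one of three metabolic inhibitors, for 72 h at 37 °C, 5% CO2.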

HL-60 [2] = assay: area under dose-response curve (viability, 1 nM-10 uM) (fraction (0-1)); higher = more sensitive
Outline: as §1

[3] = system: myeloid leukemia patient primary cells Pat.10; assay: cell viability (% survival relative to DMSO control); higher = less cytotoxic
Outline: (§2)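 Where an area under the curve appears, it was computed with the drc and PharmacoGx R packages from log-logistic fits. Those fits used four parameters. The underlying viability data came from CellTiter-Glo after 72 h, normalised to DMSO and 10 μM proteasome-inhibitor wells, with thawed, Ficoll-purified AML or CML patient mononuclear cells at 10,000 cells/well in RPMI 1640 with 10% FBS on 384-well plates pre-printed with 70 compounds at five tenfold concentrations (1–10,000 nM) in duplicate.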

[4] = system: myeloid leukemia patient primary cells Pat.11; assay: as above
Outline: as §2

[5] = system: myeloid leukemia patient primary cells Pat.12; assay: as above
Outline: as §2

[6] = system: myeloid leukemia patient primary cells Pat.13; assay: as above
Outline: as §2

[7] = system: myeloid leukemia patient primary cells Pat.14; assay: as above
Outline: as §2

[8] = system: myeloid leukemia patient primary cells Pat.15; assay: as above
Outline: as §2

[9] = system: myeloid leukemia patient primary cells Pat.1; assay: as above
Outline: as §2

[10] = system: myeloid leukemia patient primary cells Pat.2; assay: as above
Outline: as §2

[11] = system: myeloid leukemia patient primary cells Pat.3; assay: as above
Outline: as §2

[12] = system: myeloid leukemia patient primary cells Pat.4; assay: as above
Outline: as §2

[13] = system: myeloid leukemia patient primary cells Pat.5; assay: as above
Outline: as §2

[14] = system: myeloid leukemia patient primary cells Pat.6; assay: as above
Outline: as §2

[15] = system: myeloid leukemia patient primary cells Pat.7; assay: as above
Outline: as §2

[16] = system: myeloid leukemia patient primary cells Pat.8; assay: as above
Outline: as §2

[17] = system: myeloid leukemia patient primary cells Pat.9; assay: as above
Outline: as §2

CC(C)CC(=O)N[C@H](C(=O)N[C@H](C(=O)N[C@@H](CC(C)C)[C@@H](O)CC(=O)N[C@@H](C)C(=O)N[C@@H](CC(C)C)[C@@H](O)CC(=O)O)C(C)C)C(C)C [Pepstatin A]
cell viability [%], HL-60 [1]
Conditions	0.001 µM	0.01 µM	0.1 µM	1 µM	10 µM
co-treatment: AZD3965 100 nM	104	107	103	102	102
co-treatment: DMSO vehicle	98.3	101	98.4	98.35	99.6
co-treatment: GSK2194069 100 nM	100	108	103	103	99.9
co-treatment: pictilisib 100 nM	99.8	117	98.8	89.9	107

HL-60 [2]
Conditions	area under dose-response curve
co-treatment: AZD3965 100 nM	< 0.0301
co-treatment: DMSO vehicle	< 0.0301
co-treatment: GSK2194069 100 nM	< 0.0301
co-treatment: pictilisib 100 nM	< 0.0301

Cc1cccc(Nc2cc(Cl)nc(SCC(=O)O)n2)c1C [Pirinixic acid]
cell viability [%], HL-60 [1]
Conditions	0.001 µM	0.01 µM	0.1 µM	1 µM	10 µM
co-treatment: AZD3965 100 nM	98.81	99	96.2	99.2	98.02
co-treatment: DMSO vehicle	97.46	94.5	96.3	100.4	96.4
co-treatment: GSK2194069 100 nM	70.6	89.6	94.6	99.1	77.3
co-treatment: pictilisib 100 nM	96.5	80.8	91.1	102	96.7

HL-60 [2]
Conditions	area under dose-response curve
co-treatment: AZD3965 100 nM	< 0.0301
co-treatment: DMSO vehicle	< 0.0301
co-treatment: GSK2194069 100 nM	< 0.0301
co-treatment: pictilisib 100 nM	< 0.0301

N[C@@H](CC(=O)N1CCn2c(nnc2C(F)(F)F)C1)Cc1cc(F)c(F)cc1F [Sitagliptin]
cell viability [%], HL-60 [1]
Conditions	0.001 µM	0.01 µM	0.1 µM	1 µM	10 µM
co-treatment: AZD3965 100 nM	103	108	103	103	109
co-treatment: DMSO vehicle	97.61	102	100	101	101
co-treatment: GSK2194069 100 nM	97.9	104	99.4	107	97.9
co-treatment: pictilisib 100 nM	82.9	104	99.5	114	94.2

HL-60 [2]
Conditions	area under dose-response curve
co-treatment: AZD3965 100 nM	< 0.0301
co-treatment: DMSO vehicle	< 0.0301
co-treatment: GSK2194069 100 nM	< 0.0301
co-treatment: pictilisib 100 nM	< 0.0301

CN1CCN(CCCN2c3ccccc3Sc3ccc(C(F)(F)F)cc32)CC1 [Trifluoperazine]
cell viability [%], HL-60 [1]
Conditions	0.001 µM	0.01 µM	0.1 µM	1 µM	10 µM
co-treatment: AZD3965 100 nM	101	100	97.8	101	81.7
co-treatment: DMSO vehicle	101.2	103	102	102	90.6
co-treatment: GSK2194069 100 nM	94	101	96	101	70.4
co-treatment: pictilisib 100 nM	97	95.9	108	97.2	47.7

cell viability [%]
Conditions	1 nM	10 nM	100 nM	1000 nM	10000 nM
[3]	55.5	91.7	70.3	13.3	9.9
[4]	> 100	100	99.9	77.4	12
[5]	95.7	89.5	95.9	87	38.3
[6]	90.5	90.8	99.3	56.4	39.1
[7]	89.2	85.5	86.6	26.5	1.65
[8]	98.2	91.9	> 100	78.4	45.9
[9]	97.8	93.7	94.1	56	19.4
[10]	> 100	> 100	> 100	75.6	48.6
[11]	99.7	80.7	65.1	11.8	0.738
[12]	84.5	98.7	97.6	75.1	15.8
[13]	99.9	49.2	88	0.912	3.33
[14]	98.8	94.2	97.8	63.5	23.8
[15]	87.1	68.6	42.7	< 0	< 0
[16]	80	88.9	91.3	69.8	41.6
[17]	79.5	52.7	65.3	0.773	1.6

N#C/C(=C\c1ccc(O)cc1)C(=O)O [alpha-cyano-4-hydroxycinnamic acid]
cell viability [%], HL-60 [1]
Conditions	0.001 µM	0.01 µM	0.1 µM	1 µM	10 µM
co-treatment: AZD3965 100 nM	99.4	101	102.35	101	101
co-treatment: DMSO vehicle	98.9	98.8	95.79	99.8	98.6
co-treatment: GSK2194069 100 nM	101	103	98.6	97.5	95.5
co-treatment: pictilisib 100 nM	90.3	99.16	95.5	94.7	91.3

HL-60 [2]
Conditions	area under dose-response curve
co-treatment: AZD3965 100 nM	< 0.0301
co-treatment: DMSO vehicle	< 0.0301
co-treatment: GSK2194069 100 nM	< 0.0301
co-treatment: pictilisib 100 nM	< 0.0301
